Paper PMC9285603, “Flavan‐3‐ol Microbial Metabolites Modulate Proteolysis in Neuronal Cells Reducing Amyloid‐beta (1‐42) Levels” (Molecular Nutrition & Food Research, 2021)
Where two headings read alike, the source gives them in different places.

Legend:
[1] = design: method as in PMID 28891114; conditions: compared with parental compound EGCG; cited from earlier work
[2] = tested on: human neuroblastoma SH‐SY5Y cells; design: method as in PMID 28891114; conditions: cited from earlier work
20S immunoproteasome = target: T1, 20S immunoproteasome (Bos taurus, UniProt Q3SZC2+Q3T0T1+Q3T112); experiment: In vitro activity assays on isolated immunoproteasome (fluorogenic peptides); assay type: biochemical; conditions: isolated 20S from bovine thymus
T1 construct: isolated constitutive and immunoproteasomes purified from bovine brain and thymus, respectively; from tissue; host or cells: bovine thymus
Procedure: (§1) PVLs effects on the 20S constitutive and immunoproteasome peptidase activities were measured through in vitro assays performed with fluorogenic peptides as substrates. Isolation and purification of the 20S proteasome from bovine brain and thymus were performed as previously reported.^[ [23] ^] The incubation mixture contained the compound at concentrations ranging from 0.0 to 10 µM, 1 µg of the isolated 20S proteasome, the appropriate substrate (5 µM final concentration), and 50 mm Tris/HCl (pH 8.0), up to a final volume of 100 µL. Purified proteasomes were always preincubated with each compound at 37°C for 30 min before the fluorogenic peptide substrates were added to the reaction mixture. Final incubation was performed at 37°C, and after 60 min the fluorescence of the hydrolyzed 7‐amino‐4‐methyl‐coumarin (AMC) and 4‐aminobenzoic acid (pAB) was detected (AMC, λexc = 365 nm, λem = 449 nm; pAB, λexc = 304 nm, λem = 664 nm) on a SpectraMax Gemini XPS microplate reader.
(§2) PVLs were first tested on isolated constitutive and immunoproteasomes purified from bovine brain and thymus, respectively. The constitutive 20S proteasome is a barrel‐shaped complex of four stacked rings, made of seven α subunits in the two outer rings and seven β subunits in the two inner rings, the latter bearing the catalytically active sites in the β1, β2, and β5 subunits. Treatment with inflammatory cytokines induces the transcription of three additional active subunits, known as β1i, β2i, and β5i, that replace constitutive homologues during proteasome assembly.^[ [28] ^] Proteasome proteolytic activities depend on the hydroxyl group of the N‐terminal threonine (Thr‐1) residue, responsible for cleaving peptides through a nucleophilic attack.^[ [29] ^]

20S proteasome = target: T2, 20S proteasome (Homo sapiens, UniProt P28072+P28074+Q99436); experiment: 20S proteasome activity in cell lysates (fluorimetric); assay type: cell-based; conditions: cellular lysates, 1 and 5 µM, 6 and 24 h
T2 construct: The incubation mixture contained 1 µg of cell lysate, the appropriate substrate; endogenous in cells; host or cells: SH-SY5Y (control, APPwt- and APPmut-transfected); only APP is transfected, the proteasome is endogenous
T2 sequence (P28074 60-263): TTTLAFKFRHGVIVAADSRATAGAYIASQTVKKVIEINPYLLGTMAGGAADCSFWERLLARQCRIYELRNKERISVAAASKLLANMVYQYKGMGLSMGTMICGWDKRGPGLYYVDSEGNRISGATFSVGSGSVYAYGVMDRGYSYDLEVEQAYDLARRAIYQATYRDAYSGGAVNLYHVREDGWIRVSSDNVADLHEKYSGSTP
T2 sequence (Q99436 44-277): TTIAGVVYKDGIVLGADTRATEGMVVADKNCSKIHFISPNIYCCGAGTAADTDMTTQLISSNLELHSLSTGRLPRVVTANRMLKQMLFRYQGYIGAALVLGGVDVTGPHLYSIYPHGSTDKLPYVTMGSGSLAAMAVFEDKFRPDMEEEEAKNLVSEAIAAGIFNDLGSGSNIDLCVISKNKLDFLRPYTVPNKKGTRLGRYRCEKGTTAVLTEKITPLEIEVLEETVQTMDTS
T2 sequence (P28072 1-239): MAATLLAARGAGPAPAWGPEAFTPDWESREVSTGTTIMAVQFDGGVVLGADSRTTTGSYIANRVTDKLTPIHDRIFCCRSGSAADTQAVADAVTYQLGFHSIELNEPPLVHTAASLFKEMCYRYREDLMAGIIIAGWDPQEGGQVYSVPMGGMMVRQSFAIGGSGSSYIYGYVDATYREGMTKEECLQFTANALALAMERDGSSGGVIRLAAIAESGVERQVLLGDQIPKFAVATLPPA
Procedure: Cell viability was evaluated with the 3‐(4,5‐dimethylthiazol‐2‐yl)‐2,5‐diphenyltetrazolium bromide assay (MTT).^[ [25] ^] Upon 6 h and 24 h treatment with increasing concentrations (0‐10 µM) of C1, C2, and C3 dissolved in DMSO, cells were washed in PBS, pH 7.5, and then MTT (final concentration 0.5 mg mL^−1) was added to the culture medium without FBS and incubated for 2 h at 37 °C. The medium was then removed and replaced with 100 µL of DMSO. The optical density was measured at 550 nm in a microtiter plate reader. At least six cultures were utilized for each time point. […] Protein concentration was determined by the method of Bradford using bovine serum albumin (BSA) as standard.^[ [26] ^]
The effects on the proteasome system were evaluated through fluorimetric assays, as previously reported,^[ [27] ^] using the following synthetic substrates: Leu‐Leu‐Val‐Tyr‐AMC for ChT‐L, Leu‐Ser‐Thr‐Arg‐AMC for T‐L, Leu‐Leu‐Glu‐AMC for PGPH, and Gly‐Pro‐Ala‐Leu‐Ala‐AMC for BrAAP, whose test is performed with the addition of the aminopeptidase‐N (AP‐N). […] Incubation was performed at 37 °C, and after 60 min, the fluorescence of the hydrolyzed 7‐amino‐4‐methyl‐coumarin (AMC) was recorded (AMC, λexc = 365 nm, λem = 449 nm) on a SpectraMax Gemini XPS microplate reader. […] The fluorescence values of lysates were subtracted of the values of control assays in the presence of the two inhibitors.

Cathepsin B = target: T3, Cathepsin B (Homo sapiens, UniProt P07858); experiment: Cathepsin B activity in cell lysates (Z‐Arg‐Arg‐AMC); assay type: cell-based; conditions: APPmut cells, 6 h treatment
T3 construct: The mixture for cathepsin B, containing 1 µg of cell lysate; endogenous in cells; host or cells: SH-SY5Y (control, APPwt- and APPmut-transfected)
Procedure: (§3) Cell viability was evaluated with the 3‐(4,5‐dimethylthiazol‐2‐yl)‐2,5‐diphenyltetrazolium bromide assay (MTT).^[ [25] ^] Upon 6 h and 24 h treatment with increasing concentrations (0‐10 µM) of C1, C2, and C3 dissolved in DMSO, cells were washed in PBS, pH 7.5, and then MTT (final concentration 0.5 mg mL^−1) was added to the culture medium without FBS and incubated for 2 h at 37 °C. The medium was then removed and replaced with 100 µL of DMSO. The optical density was measured at 550 nm in a microtiter plate reader. At least six cultures were utilized for each time point. Neuroblastoma cells, control and transfected cells, were then treated with C1, C2, and C3 for 6 and 24 h at the concentrations 0–1–5 µM. Compounds were dissolved in DMSO and then added to cell culture media. Control cells were included in each time point. After removing the medium and washing with cold phosphate buffered saline (PBS), cells were harvested in 4 mL of PBS and centrifuged at 1600 × g for 5 min. The pellet was resuspended in lysis buffer (20 mM Tris, pH 7.4, 250 mM sucrose, 1 mM EDTA, and 5 mM β‐mercaptoethanol) and passed through a 29‐gauge needle at least ten times. Lysates were centrifuged at 12 000×g for 15 min and the supernatants were stored at ‐80°C until use. Protein concentration was determined by the method of Bradford using bovine serum albumin (BSA) as standard.^[ [26] ^]
Cathepsin B proteolytic activity was measured using the fluorogenic peptide Z‐Arg‐Arg‐AMC at a final concentration of 50 µM, as previously described.^[ [24] ^] The mixture for cathepsin B, containing 1 µg of cell lysate, was pre‐incubated in 100 mM phosphate buffer pH 6.0, 1 mM EDTA, and 2 mM dithiothreitol for 5 min at 30°C. Upon the addition of the substrate, the mixture was incubated for 15 min at 30°C. The fluorescent signal released by the hydrolyzed 7‐amino‐4‐methyl‐coumarin (AMC, λexc = 365 nm, λem = 449 nm) was detected on a SpectraMax Gemini XPS microplate reader.

[3] = tested on: SH‐SY5Y control and transfected cells; experiment: MTT cell viability assay; assay type: cell-based, human; conditions: 24 h exposure, 10 µM, data not shown
Procedure: as §3

LC3II and p62 = experiment: Western blot of autophagy markers (LC3II, p62); assay type: cell-based, human; conditions: APPwt cells, 6 h
Procedure: as §3
Proteins were resolved on SDS–PAGE and electroblotted onto PVDF membranes. Membranes with transferred proteins were incubated with the primary monoclonal antibody and successively with the specific peroxidase conjugated secondary antibody. Monoclonal antibodies against Ub and p27 were obtained from Santa Cruz Biotechnology, Inc. (Heidelberg, Germany). SQSTM1/p62 (sequestosome 1, herein p62) mouse monoclonal antibody was from Sigma‐Aldrich S.r.L. (Milano, Italy) and the anti‐LC3B antibody was purchased from Cell Signaling Technology, Inc. The immunoblot detection was performed with ECL Western blotting detection reagents using a ChemiDoc MP system. […] Immunoblot images were quantified using ImageJ 1.52p software (NIH, USA).

Aβ(1‐42) = experiment: Quantification of Aβ(1‐42) by ELISA in medium and cellular extracts; assay type: cell-based, human; conditions: APPwt cells, 24 h, 5 µM
Procedure: Levels of Aβ(1‐42) secreted into the medium and present in cellular extracts were determined after PVLs treatment using the Human Aβ42 solid‐phase sandwich ELISA Kit from Invitrogen, following the manufacturer's instructions. For Aβ quantification in cell medium, culture medium was collected after neuronal cells treatment, centrifuged at 300 × g for 10 min to remove non adherent cells and debris and then treated with protease inhibitors.

[4] = tested on: ubiquitin‐protein conjugates and p27; experiment: Western blot of proteasome substrates (ubiquitin‐protein conjugates, p27); assay type: cell-based, human
Procedure: as §3
Proteins were resolved on SDS–PAGE and electroblotted onto PVDF membranes. Membranes with transferred proteins were incubated with the primary monoclonal antibody and successively with the specific peroxidase conjugated secondary antibody. Monoclonal antibodies against Ub and p27 were obtained from Santa Cruz Biotechnology, Inc. (Heidelberg, Germany). SQSTM1/p62 (sequestosome 1, herein p62) mouse monoclonal antibody was from Sigma‐Aldrich S.r.L. (Milano, Italy) and the anti‐LC3B antibody was purchased from Cell Signaling Technology, Inc. The immunoblot detection was performed with ECL Western blotting detection reagents using a ChemiDoc MP system. Each gel was loaded with molecular weight markers in the range of 12 to 225 kDa (GE Healthcare). Glyceraldehyde‐3‐phosphate dehydrogenase (GAPDH) was utilized as a control for equal protein loading: membranes were stripped and re‐probed with anti‐GAPDH monoclonal antibody (Santa Cruz Biotechnology, Heidelberg, Germany). Stripping buffer contained 200 mM glycine, 0.1% SDS, and 1% Tween 20. Immunoblot images were quantified using ImageJ 1.52p software (NIH, USA).

[5] = target: T4, constitutive 20S proteasome (Bos taurus, UniProt Q2TBP0+Q32KL2+Q3MHN0); experiment: In vitro activity assays on isolated constitutive 20S proteasome (fluorogenic peptides); assay type: biochemical; conditions: isolated 20S from bovine brain
T4 construct: isolated constitutive and immunoproteasomes purified from bovine brain and thymus, respectively; from tissue; host or cells: bovine brain
Procedure: as §1, §2

Row | IC50 (20S immunoproteasome; 30 min preincubation, 37°C, read-out: IC50 ChT‐L Immunoproteasome) [nM] | IC50 (20S immunoproteasome; read-out: IC50 BrAAP Immunoproteasome) [nM] | IC50 (20S immunoproteasome; read-out: IC50 PGPH Immunoproteasome) [nM] | IC50 (20S immunoproteasome; read-out: IC50 T‐L Immunoproteasome) [nM] | proteasome inhibition, comparison among the three tested compounds (20S proteasome) | inhibition at 5 µM (Cathepsin B) [%] | IC50 ([5]; 30 min preincubation, 37°C, read-out: IC50 ChT‐L Constitutive proteasome) [nM] | IC50 ([5]; read-out: IC50 BrAAP Constitutive proteasome) [nM] | IC50 ([5]; read-out: IC50 PGPH Constitutive proteasome) [nM] | IC50 ([5]; read-out: IC50 T‐L Constitutive proteasome) [nM] | SMILES | BBB permeability [1] | neurites outgrowth and elongation [2] | number of APPmut viable cells (MTT) [3] | levels of LC3II (LC3II and p62) | Aβ(1‐42) levels (Aβ(1‐42)) | levels of Ub‐conjugates and p27 ([4]; 6 h exposure, control and transfected SH‐SY5Y cells) | levels of Ub‐conjugates and p27 ([4]; 24 h treatment, mainly in APPmut cells exposed to C1)
1 | – | – | – | – | – | – | – | – | – | – | O=C1CCC(Cc2cc(O)cc(O)c2)O1 (centres unmarked) [5‐(3ʹ,5ʹ‐dihydroxyphenyl)‐γ‐valerolactone] | slightly higher | significantly induced | – | – | – | – | –
2 | 238 ± 16.7 | 61.3 ± 5.7 | 114 ± 19.7 | 334 ± 28.9 | the least efficient | 20 | 16.2 ± 1.2 | 256 ± 14.4 | 85.8 ± 7.8 | 87.4 ± 7.9 | O=C1CCC(Cc2ccc(O)c(O)c2)O1 (centres unmarked) [Compound C2, 5‐(3ʹ,4ʹ‐dihydroxyphenyl)‐γ‐valerolactone] | – | – | minor reduction | increased | did not induce any change | no particular effect | evident increase
